Molecules are shown by their SMILES.

The first test relates to human embryonic stem cell derived neural stem cells (NSCs). As to the kind of experiment: Neural stem cell proliferation assay (neurogenesis assay). It is filed as cell-based. To be noted: Homo sapiens, Neural stem cell, 96 h; Table 1, novel compounds; concentration at which 150% activity of control (100%) is reached; ATP levels (CellTiterGlo) after 4 days incubation. On the procedure: Neural Stem Cell Proliferation Assay
Neurogenic properties of small molecules are determined based on the proliferation of human embryonic stem cell derived neural stem cells (NSCs) which were derived via a dual smad inhibition as previously described (Chambers, S. M., et al., Highly efficient neural conversion of human ES and iPS cells by dual inhibition of SMAD signaling, Nature biotechnology, 2009. 27 (3): p. 275-80.)
Compounds respond is measured by the increase in cells based on ATP levels (Promega:CellTiterGlo®) after an incubation period of 4 days.
NSCs are thawed and expanded over 3 passages. On the 14th day, NSCs are seeded in Polyornithin/Laminin coated 384 well plates at a cell density of 21,000 cells/cm^2 in a media volume of 38 μl.
4 hours after cell seeding, compound solutions are added at a volume of 2 μl. Stock solutions of the compounds (water, 5% DMSO) are diluted to obtain a dose response (11 points, dilution factor is 2), ranging from 8 μM to 8 nM. Controls are run to consistently determine the neurogenic properties of the cells:
Negative (neutral) control is cell culture Media (final DMSO concentration: 0.25%).
Positive controls are: • 1. cell culture Media+100 ng/ml FGF2 (final DMSO concentration: 0.1%) • 2. cell culture Media+20 ng/ml EGF (final DMSO concentration: 0.1%) • 3. cell culture Media+100 ng/ml Wnt3a (final DMSO concentration: 0.1%)
After 4 days incubation at 37° C., 5% CO2, the amount of ATP per well is quantified. The ATP concentration is proportional to the cell number. ATP is quantified by using the Promega CellTiterGlo® kit. The CellTiterGlo® reagents contain a cell lysis buffer, a thermo stable luciferase (UltraGlo™ recombinant luciferase), magnesium and luciferin. Luciferin reacts with ATP producing oxyluciferin, AMP and light. The luminescence signal is proportional to the ATP content.
The value of negative (neutral) control is determined for each assay plate by taking the average of 16 negative control wells. The neurogenic compound response is calculated for each compound as (compound/Negative Control)*100.
The values of EC150 from the dose response curve are determined for each test compound. The EC150 is the compound concentration at which 150% activity of control (100%) is reached.
Consider `Cc1cc2cncc(-c3ccc(F)cc3)c2nc1C(N)=O` [Example 153, 8-(4-Fluorophenyl)-3-methyl-1,6-naphthyridine-2-carboxamide], for which the EC (150% of control) was 0.79 µM.
As for `CC(C)(C)OC(=O)N1CCN(C(=O)c2ccc3cncc(-c4ccc(Cl)cc4)c3n2)CC1` [Example 58, tert-Butyl 4-(8-(4-chlorophenyl)-1,6-naphthyridine-2-carbonyl)piperazine-1-carboxylate], the EC (150% of control) turned out to be 1.1 µM.
Same read-out and setting: the figure for `CC(NC(=O)c1ccc2cncc(-c3cccc(F)c3)c2n1)c1ccc(S(C)(=O)=O)cc1` (stereo not drawn) [Example 109, 8-(3-Fluorophenyl)-N-(1-(4-(methylsulfonyl)phenyl)ethyl)-1,6-naphthyridine-2-carboxamide] is 4.2 µM; for `NCc1ccc(-c2cncc3ccc(C(N)=O)nc23)cc1` [Example 156, 8-(4-(Aminomethyl)phenyl)-1,6-naphthyridine-2-carboxamide] it is 0.31 µM; for `NC(=O)c1ccc2cncc(-c3ccc(N4CCOCC4)cc3)c2n1` [Example 94, 8-(4-Morpholinophenyl)-1,6-naphthyridine-2-carboxamide] it is 0.01 µM.
Still for that read-out and setting: to `NC(=O)c1ccc2cncc(-c3cccc(N4CCOCC4)c3)c2n1` [Example 93, 8-(3-Morpholinophenyl)-1,6-naphthyridine-2-carboxamide] belongs 0.21 µM; to `COc1ccc(-c2cncc3ccc(C(=O)NCCc4ccccc4)nc23)cc1` [Example 20, 8-(4-Methoxyphenyl)-N-phenethyl-1,6-naphthyridine-2-carboxamide], 0.8 µM.
On to `NC(=O)c1ccc2cncc(-c3ccccc3Cl)c2n1` [Example 168, 8-(2-Chlorophenyl)-1,6-naphthyridine-2-carboxamide], for which the EC (150% of control) came out at 0.15 µM.
In turn, `NC(=O)c1ccc2cncc(-c3ccc(F)cc3)c2n1` [Example 77, 8-(4-Fluorophenyl)-1,6-naphthyridine-2-carboxamide] came in with an EC (150% of control) of 0.09 µM.
`O=C(NCCCn1ccnc1)c1ccc2cncc(-c3ccncc3)c2n1` [Example 41, N-(3-(1H-Imidazol-1-yl)propyl)-8-(pyridin-4-yl)-1,6-naphthyridine-2-carboxamide] showed an EC (150% of control) of 1.7 µM.
Compound `NC(=O)c1ccc2cncc(-c3ccc(Cl)nc3)c2n1` [Example 159, 8-(6-Chloropyridin-3-yl)-1,6-naphthyridine-2-carboxamide] came in with an EC (150% of control) of 0.18 µM.
The compound `CC(NC(=O)c1ccc2cncc(-c3ccc(C(F)(F)F)cc3)c2n1)C(C)(C)O` (stereo not drawn) [Example 161, N-(3-Hydroxy-3-methylbutan-2-yl)-8-(4-(trifluoromethyl)phenyl)-1,6-naphthyridine-2-carboxamide] registered an EC (150% of control) of 0.06 µM.
For the compound `O=C(NCc1ccccc1)c1ccc2cncc(Br)c2n1` [Example 10, N-Benzyl-8-bromo-1,6-naphthyridine-2-carboxamide], the EC (150% of control) came out at 0.76 µM.
Regarding `Cc1cc2cncc(-c3ccc(Cl)cc3)c2nc1C(N)=O` [Example 152, 8-(4-Chlorophenyl)-3-methyl-1,6-naphthyridine-2-carboxamide], the EC (150% of control) was 0.34 µM.
Same read-out and setting: to `Cc1nc(C)c(-c2cncc3ccc(C(N)=O)nc23)s1` [Example 102, 8-(2,4-Dimethylthiazol-5-yl)-1,6-naphthyridine-2-carboxamide] belongs 0.14 µM.
`Cc1cc2cncc(-c3ccc(C#N)cc3)c2nc1C(N)=O` [Example 155, 8-(4-Cyanophenyl)-3-methyl-1,6-naphthyridine-2-carboxamide] yielded an EC (150% of control) of 0.7 µM.
The compound `O=C(c1ccc2cncc(-c3ccc(Cl)cc3)c2n1)N1CCC(O)C1` (stereo not drawn) [Example 75, (8-(4-Chlorophenyl)-1,6-naphthyridin-2-yl)(3-hydroxypyrrolidin-1-yl)methanone] gave an EC (150% of control) of 0.4 µM.
`COc1ccc(-c2cncc3ccc(C(N)=O)nc23)cc1` [Example 21, 8-(4-Methoxyphenyl)-1,6-naphthyridine-2-carboxamide] showed an EC (150% of control) of 0.01 µM.
In turn, `CC1(CNC(=O)c2ccc3cncc(-c4ccc(Cl)cc4)c3n2)CCC(=O)N1` (stereo not drawn) [Example 62, 8-(4-Chlorophenyl)-N-((2-methyl-5-oxopyrrolidin-2-yl)methyl)-1,6-naphthyridine-2-carboxamide] yielded an EC (150% of control) of 0.01 µM.
Turning to `COc1ccccc1CNC(=O)c1ccc2cncc(-c3ccc(Cl)cc3)c2n1` [Example 47, 8-(4-Chlorophenyl)-N-(2-methoxybenzyl)-1,6-naphthyridine-2-carboxamide], the EC (150% of control) is 0.13 µM.
In turn, `COc1ccc(-c2cncc3ccc(C(N)=O)nc23)cn1` [Example 89, 8-(6-Methoxypyridin-3-yl)-1,6-naphthyridine-2-carboxamide] registered an EC (150% of control) of 0.09 µM.
Same read-out and setting: the figure for `CS(=O)(=O)c1ccccc1CNC(=O)c1ccc2cncc(-c3ccc(Cl)cc3)c2n1` [Example 132, 8-(4-Chlorophenyl)-N-(2-(methylsulfonyl)benzyl)-1,6-naphthyridine-2-carboxamide] is 0.03 µM; for `NC(=O)c1ccc2cncc(-c3ccc(-n4cccn4)cc3)c2n1` [Example 103, 8-(4-(1H-Pyrazol-1-yl)phenyl)-1,6-naphthyridine-2-carboxamide] it is 0.01 µM; for `COc1cccc(-c2cncc3ccc(C(=O)NCCCn4ccnc4)nc23)c1` [Example 38, N-(3-(1H-Imidazol-1-yl)propyl)-8-(3-methoxyphenyl)-1,6-naphthyridine-2-carboxamide] it is 1.95 µM.
`CC(NC(=O)c1ccc2cncc(-c3cccc(Cl)n3)c2n1)C(C)(C)O` (stereo not drawn) [Example 175, 8-(6-Chloropyridin-2-yl)-N-(3-hydroxy-3-methylbutan-2-yl)-1,6-naphthyridine-2-carboxamide] yielded an EC (150% of control) of 1.03 µM.
Turning to `CS(=O)(=O)CCNC(=O)c1ccc2cncc(-c3cc(F)ccc3F)c2n1` [Example 138, 8-(2,5-Difluorophenyl)-N-(2-(methylsulfonyl)ethyl)-1,6-naphthyridine-2-carboxamide], the EC (150% of control) turned out to be 0.26 µM.
Same read-out and setting: to `O=C(NCCCn1ccnc1)c1ccc2cncc(-c3ccccc3Cl)c2n1` [Example 40, N-(3-(1H-Imidazol-1-yl)propyl)-8-(2-chlorophenyl)-1,6-naphthyridine-2-carboxamide] belongs 0.69 µM.
Compound `CC(C)(C)CNC(=O)c1ccc2cncc(-c3ccccc3F)c2n1` [Example 118, 8-(2-Fluorophenyl)-N-neopentyl-1,6-naphthyridine-2-carboxamide] registered an EC (150% of control) of 0.04 µM.
For the compound `O=C(NCc1ccccc1)c1ccc2cncc(-c3ccncc3)c2n1` [Example 16, N-Benzyl-8-(pyridin-4-yl)-1,6-naphthyridine-2-carboxamide], the EC (150% of control) turned out to be 0.04 µM.

The test is the same for the next values; noted with them: Homo sapiens, Neural stem cell, 96 h; Table 2, known compounds; concentration at which 150% activity of control (100%) is reached; ATP levels (CellTiterGlo) after 4 days incubation.
In the case of `COc1ccccc1CNC(=O)c1ccc2cncc(-c3ccccc3)c2n1` [Example 194, 8-Phenyl-[1,6]naphthyridine-2-carboxylic acid 2-methoxy-benzylamide], the EC (150% of control) was found to be 0.73 µM.
On the same count and under the same terms, the figure for `COc1ccc(-c2cncc3ccc(C(=O)NCc4ccc(C(F)(F)F)nc4)nc23)cc1` [Example 186, 8-(4-Methoxy-phenyl)-[1,6]naphthyridine-2-carboxylic acid (6-trifluoromethyl-pyridin-3-ylmethyl)-amide] is 0.67 µM; for `NC(=O)c1ccc2cncc(Br)c2n1` [Example 206, 8-Bromo-1,6-naphthyridine-2-carboxamide] it is 0.8 µM.
Take `COCCNC(=O)c1ccc2cncc(-c3ccccc3)c2n1` [Example 204, 8-Phenyl-[1,6]naphthyridine-2-carboxylic acid (2-methoxy-ethyl)-amide]: the EC (150% of control) worked out at 0.2 µM.
`O=C(NCc1ccncc1)c1ccc2cncc(-c3ccsc3)c2n1` [Example 198, 8-Thiophen-3-yl-[1,6]naphthyridine-2-carboxylic acid (pyridin-4-ylmethyl)-amide] gave an EC (150% of control) of 0.12 µM.
On the same count and under the same terms, to `Cc1cnc(CNC(=O)c2ccc3cncc(-c4ccccc4)c3n2)cn1` [Example 190, 8-Phenyl-[1,6]naphthyridine-2-carboxylic acid (5-methyl-pyrazin-2-ylmethyl)-amide] belongs 0.5 µM.
`COc1ccc(-c2cncc3ccc(C(=O)N4CCN(Cc5nc(OC)cc(OC)n5)CC4)nc23)cc1` [Example 187, [4-(4,6-Dimethoxy-pyrimidin-2-ylmethyl)-piperazin-1-yl]-[8-(4-methoxy-phenyl)-[1,6]naphthyridin-2-yl]-methanone] displayed an EC (150% of control) of 0.71 µM.

Source of the values: patent US9657014B2, “Substituted 1,6-naphthyridines” (Hoffmann-La Roche Inc., priority 2012, dated 2017).
